Assay results reported in patent US12295936B2, “Immunomodulating urea azalides” (Zoetis Services LLC, priority 2020, dated 2025).
Like-named read-outs stand apart in the source and are kept apart here. Each block holds one molecule with its values, some of them ahead of it.

What was measured:
Experiment in all cases: LPS-stimulated whole bovine blood assay, MSD cytokine detection
Format in all cases: cell-based
[1] = system: TNF-α; details: read-out: TNF-α (IC50 μM)
Protocol: (§1) Therefore, a fresh whole bovine blood assay was developed with LPS as a stimulant (TLR-4 agonist) and with IL-1β and TNF-α as the read-out. Compounds of the invention were evaluated against a positive control for their ability to inhibit LPS-induced IL-1β and TNF-α as an overall evaluation of relative potency and modulation of target pathways (Table 6).
In the bovine whole blood in vitro screening assay the inhibition of TNFα as induced by stimulation by lipopolysaccharide (LPS) and as measured by half the maximal inhibitory concentration (IC50) is recognized as the primary biomarker of immunomodulation potency upon pretreatment with the compounds of the invention. IL-1β is a mediator of the inflammation response and is involved in a number of cellular activities including proliferation, differentiation and apoptosis. IL-1β is also released upon cellular stress or cytotoxicity or upon TLR stimulation. In the bovine whole blood assay the stimulation of IL-1β release upon increasing concentration of test compound is seen as a potential cellular toxicity signal as induced by the test compound. In order to estimate a therapeutic index from the in vitro assay a differential between the TNFα IC50 (immunomodulation potency) versus the perceived cellular toxicity concentration (IL-1β release or overstimulation) was utilized.

[2] = system: IL-6; details: read-out: IL-6 (IC50 μM)
Source text: (§2) In order to correlate RNA sequencing data to cytokine changes the whole blood assay was utilized. […] The enhancement result represents an overall stimulation of cytokine levels due to cellular stress or potential toxicity with increasing concentrations of the compound, representing a typical bell shape response curve for immunomodulatory activity.

[3] = system: IL-1β; details: overstimulation of IL-1β, LPS-stimulated bovine whole blood
Protocol: as §1, with “The effect of multiple cytokines was not easily quantified using single cell types. Therefore,” for “Therefore,”
as §2
In the bovine whole blood in vitro screening assay the inhibition of TNFα as induced by stimulation by lipopolysaccharide (LPS) and as measured by half the maximal inhibitory concentration (IC50) is recognized as the primary biomarker of immunomodulation potency upon pretreatment with the compounds of the invention.

[4] = Bos taurus, LPS-stimulated bovine whole blood
[5] = LPS-stimulated bovine whole blood

Molecule: CCCSC[C@]1(O)[C@H](C)O[C@@H](O[C@H]2[C@H](C)[C@@H](O[C@@H]3O[C@H](C)C[C@H](N(C)C(=O)N(C)c4ccccc4)[C@H]3O)[C@](C)(O)C[C@@H](C)CN[C@H](C)[C@@H](O)[C@](C)(O)[C@@H](CC)OC(=O)[C@@H]2C)C[C@@]1(C)OC [Example D-2, 1-((2S,3R,4S,6R)-2-(((2R,3S,4R,5R,8R,10R,11R,12S,13S,14R)-2-ethyl-3,4,10-trihydroxy-13-(((2R,4R,5S,6S)-5-hydroxy-4-methoxy-4,6-dimethyl-5-((propylthio)methyl)tetrahydro-2H-pyran-2-yl)oxy)-3,5,8,10,12,14-hexamethyl-15-oxo-1-oxa-6-azacyclopentadecan-11-yl)oxy)-3-hydroxy-6-methyltetrahydro-2H-pyran-4-yl)-1,3-dimethyl-3-phenylurea]
IC50 [1, 4]: 20 µM | IC50 [2, 4]: 30 µM | IL-1β OS of LPS [3]: 16 µM

Molecule: CCCNC[C@]1(O)[C@H](C)O[C@@H](O[C@H]2[C@H](C)[C@@H](O[C@@H]3O[C@H](C)C[C@H](NCC(C)C)[C@H]3Oc3ccccc3)[C@](C)(O)C[C@@H](C)CN[C@H](C)[C@@H](O)[C@](C)(O)[C@@H](CC)OC(=O)[C@@H]2C)C[C@@]1(C)OC [E-155]
IC50 [1, 5]: 8 µM | IC50 [2, 5]: 8 µM | IL-1β OS of LPS [3]: 6 µM

Molecule: CC[C@H]1OC(=O)[C@H](C)[C@@H](O[C@H]2C[C@@](C)(OC)[C@](O)(Cn3ncnn3)[C@H](C)O2)[C@H](C)[C@@H](O[C@@H]2O[C@H](C)C[C@H](N(C)C(=O)N(C)c3ccccc3)[C@H]2O)[C@](C)(O)C[C@@H](C)CN[C@H](C)[C@@H](O)[C@]1(C)O [Example J-30, 1-((2S,3R,4S,6R)-2-(((2R,3S,4R,5R,8R,10R,11R,12S,13S,14R)-13-(((2R,4R,5S,6S)-5-((2H-tetrazol-2-yl)methyl)-5-hydroxy-4-methoxy-4,6-dimethyltetrahydro-2H-pyran-2-yl)oxy)-2-ethyl-3,4,10-trihydroxy-3,5,8,10,12,14-hexamethyl-15-oxo-1-oxa-6-azacyclopentadecan-11-yl)oxy)-3-hydroxy-6-methyltetrahydro-2H-pyran-4-yl)-1,3-dimethyl-3-phenylurea]
IC50 ([1]; Bos taurus): 16 µM | IC50 ([2]; Bos taurus): 111 µM | IL-1β OS of LPS [3]: 40 µM

Molecule: CC[C@H]1OC(=O)[C@H](C)[C@@H](O)[C@H](C)[C@@H](O[C@@H]2O[C@H](C)C[C@H](N(C)C(=O)Nc3ccccc3)[C@H]2O)[C@](C)(O)C[C@@H](C)CN[C@H](C)[C@@H](O)[C@]1(C)O [Example A-13, 1-((2S,3R,4S,6R)-2-(((2R,3S,4R,5R,8R,10R,11R,12S,13S,14R)-2-ethyl-3,4,10,13-tetrahydroxy-3,5,8,10,12,14-hexamethyl-15-oxo-1-oxa-6-azacyclopentadecan-11-yl)oxy)-3-hydroxy-6-methyltetrahydro-2H-pyran-4-yl)-1-methyl-3-phenylurea]
IC50 [1, 4]: 200 µM | IC50 [2, 4]: > 500 µM | IL-1β OS of LPS [3]: >500 µM

Molecule: 1-((2S,3R,4S,6R)-2-(((2R,3S,4R,5R,8R,10R,11R,12S,13S,14R)-13-(((2R,4R,5S,6S)-5-(ethoxymethyl)-5-hydroxy-4-methoxy-4,6-dimethyltetrahydro-2H-pyran-2-yl)oxy)-2-ethyl-3,4,10-trihydroxy-3,5,8,10,12,14-hexamethyl-15-oxo-1-oxa-6-azacyclopentadecan-11-yl)oxy)-3-hydroxy-6-methyltetrahydro-2H-pyran-4-yl)-1,3-dimethyl-3-phenylurea [Example C-2]
IC50 [1, 5]: 200 µM | IC50 [2, 5]: 100 µM | IL-1β OS of LPS [3]: 100 µM

Molecule: CC[C@H]1OC(=O)[C@H](C)[C@@H](O[C@H]2C[C@@](C)(OC)[C@](O)(CNCCOC)[C@H](C)O2)[C@H](C)[C@@H](O[C@@H]2O[C@H](C)C[C@H](N(C)C(=O)N(C)c3ccccc3)[C@H]2O)[C@](C)(O)C[C@@H](C)CN[C@H](C)[C@@H](O)[C@]1(C)O [Example H-18, 1-((2S,3R,4S,6R)-2-(((2R,3S,4R,5R,8R,10R,11R,12S,13S,14R)-2-ethyl-3,4,10-trihydroxy-13-(((2R,4R,5S,6S)-5-hydroxy-4-methoxy-5-(((2-methoxyethyl)amino)methyl)-4,6-dimethyltetrahydro-2H-pyran-2-yl)oxy)-3,5,8,10,12,14-hexamethyl-15-oxo-1-oxa-6-azacyclopentadecan-11-yl)oxy)-3-hydroxy-6-methyltetrahydro-2H-pyran-4-yl)-1,3-dimethyl-3-phenylurea]
IC50 [1, 4]: 24 µM | IC50 [2, 4]: 165 µM | IL-1β OS of LPS [3]: 40 µM

Second part, led by results:

IC50 [1, 4]: 122 µM | IC50 [2, 4]: > 250 µM
Molecule: CC[C@H]1OC(=O)[C@H](C)[C@@H](O[C@H]2C[C@@](C)(OC)[C@](O)(CN3CC(N(C)C)C3)[C@H](C)O2)[C@H](C)[C@@H](O[C@@H]2O[C@H](C)C[C@H](N(C)C(=O)N(C)c3ccccc3)[C@H]2O)[C@](C)(O)C[C@@H](C)CN[C@H](C)[C@@H](O)[C@]1(C)O [Example J-26, 1-((2S,3R,4S,6R)-2-(((2R,3S,4R,5R,8R,10R,11R,12S,13S,14R)-13-(((2R,4R,5S,6S)-5-((3-(dimethylamino)azetidin-1-yl)methyl)-5-hydroxy-4-methoxy-4,6-dimethyltetrahydro-2H-pyran-2-yl)oxy)-2-ethyl-3,4,10-trihydroxy-3,5,8,10,12,14-hexamethyl-15-oxo-1-oxa-6-azacyclopentadecan-11-yl)oxy)-3-hydroxy-6-methyltetrahydro-2H-pyran-4-yl)-1,3-dimethyl-3-phenylurea]
IL-1β OS of LPS [3]: 100 µM

IC50 [1, 4]: 179 µM | IC50 [2, 4]: > 500 µM
Molecule: CCCNC[C@]1(O)[C@H](C)O[C@@H](O[C@H]2[C@H](C)[C@@H](O[C@@H]3O[C@H](C)C[C@H](N(C)C(=O)Nc4ccccc4OC)[C@H]3O)[C@](C)(O)C[C@@H](C)CN[C@H](C)[C@@H](O)[C@](C)(O)[C@@H](CC)OC(=O)[C@@H]2C)C[C@@]1(C)OC [Example H-76, 1-((2S,3R,4S,6R)-2-(((2R,3S,4R,5R,8R,10R,11R,12S,13S,14R)-2-ethyl-3,4,10-trihydroxy-13-(((2R,4R,5S,6S)-5-hydroxy-4-methoxy-4,6-dimethyl-5-((propylamino)methyl)tetrahydro-2H-pyran-2-yl)oxy)-3,5,8,10,12,14-hexamethyl-15-oxo-1-oxa-6-azacyclopentadecan-11-yl)oxy)-3-hydroxy-6-methyltetrahydro-2H-pyran-4-yl)-3-(2-methoxyphenyl)-1-methylurea]
IL-1β OS of LPS [3]: 100 µM

IC50 [1, 4]: 30 µM | IC50 [2, 4]: > 250 µM
Molecule: CC[C@H]1OC(=O)[C@H](C)[C@@H](O[C@H]2C[C@@](C)(OC)[C@](O)(CNC)[C@H](C)O2)[C@H](C)[C@@H](O[C@@H]2O[C@H](C)C[C@H](N(C)C(=O)N(C)c3ccccc3)[C@H]2O)[C@](C)(O)C[C@@H](C)CN[C@H](C)[C@@H](O)[C@]1(C)O [Example H-26, 1-((2S,3R,4S,6R)-2-(((2R,3S,4R,5R,8R,10R,11R,12S,13S,14R)-2-ethyl-3,4,10-trihydroxy-13-(((2R,4R,5S,6S)-5-hydroxy-4-methoxy-4,6-dimethyl-5-((methylamino)methyl)tetrahydro-2H-pyran-2-yl)oxy)-3,5,8,10,12,14-hexamethyl-15-oxo-1-oxa-6-azacyclopentadecan-11-yl)oxy)-3-hydroxy-6-methyltetrahydro-2H-pyran-4-yl)-1,3-dimethyl-3-phenylurea]
IL-1β OS of LPS [3]: 250 µM

IC50 [1, 4]: 32 µM | IC50 [2, 4]: 35 µM
Molecule: CCCNC[C@]1(O)[C@H](C)O[C@@H](O[C@H]2[C@H](C)[C@@H](O[C@@H]3O[C@H](C)C[C@H](N(Cc4cccnc4)C(=O)N(C)c4ccccc4)[C@H]3O)[C@](C)(O)C[C@@H](C)CN[C@H](C)[C@@H](O)[C@](C)(O)[C@@H](CC)OC(=O)[C@@H]2C)C[C@@]1(C)OC [Example H-71, 1-((2S,3R,4S,6R)-2-(((2R,3S,4R,5R,8R,10R,11R,12S,13S,14R)-2-ethyl-3,4,10-trihydroxy-13-(((2R,4R,5S,6S)-5-hydroxy-4-methoxy-4,6-dimethyl-5-((propylamino)methyl)tetrahydro-2H-pyran-2-yl)oxy)-3,5,8,10,12,14-hexamethyl-15-oxo-1-oxa-6-azacyclopentadecan-11-yl)oxy)-3-hydroxy-6-methyltetrahydro-2H-pyran-4-yl)-3-methyl-3-phenyl-1-(pyridin-3-ylmethyl)urea]
IL-1β OS of LPS [3]: 16 µM
